US12203070B2, “Gene knockout of NRF2 for treatment of cancer” (Christiana Care Gene Editing Institute , Inc., priority 2019, dated 2025)
“And” between values parts separate entries of the source, which are not always exact repeats. Equal values may be shown once. “Also recorded” adds a separate entry of the source.

Legend:
NRF2 gene = test: TIDE indel analysis of bulk sorted eGFP+ A549 cells transfected with pX458 CRISPR/Cas9 constructs; format: cell-based, human; details: bulk sorted eGFP+ A549 population, pX458 plasmid
Protocol: A549 cells were transfected at a concentration of 5×10^5 cells/100 μl in 4 mm gap cuvette (BioExpress, Kaysville, UT, USA). NRF2 targeting pX458 constructs were separately electroporated (250 V. LV, 13 ms pulse length, 2 pulses, 1 s interval) into A549 cells using a Bio-Rad Gene Pulser XCell Electroporation System (Bio-Rad Laboratories, Hercules, CA, USA). Cells were then recovered in 6-well plates with complete growth media at 37° C. for 72 hours prior to sorting. […] Clones were expanded and transferred to larger plates as the individual clones reached confluence, with DNA isolation occurring when cells reached confluence in a six-well plate (1×10^6 cells/mL).
CRISPR/Cas9 targeted A549 clones were PCR amplified (forward 5′-[…] (SEQ ID NO: 5), reverse 5′-[…] (SEQ ID NO: 6)) using Amplitaq Gold Fast PCR Master Mix (Applied Biosystems, Foster City, CA). Briefly, template DNA, primers, water and master mix were combined and cycled: 95° C. for 10 minutes, (96° C. for 3 s, 60° C. for 3 s, 68° C. for 5 s)×35 cycles, and 72° C. for 10 s. The 402 bp products were purified (Qiagen, Hilden, Germany) and Sanger sequenced using the forward PCR primer. Clonal allelic analyses of individual A549 cell clones were analyzed by the software program, Tracking of Indels by DEcomposition (TIDE), to determine the individual sub-sequences within the multi-peaked breakdown product after CRISPR/Cas9 activity. […]

[1] = test system: NRF2 knockout A549 cells (2-11); test: MTS cell proliferation assay after drug exposure, NRF2 knockout cells; format: cell-based, human; details: 2-11 knockout A549 cells, 72 hours; for chemosensitivity (MTS proliferation): increasing dosages
Protocol: (§1) Cell viability was evaluated using the CellTiter 96 Aqueous Non-Radioactive Cell Proliferation Assay (Promega, Madison, WI). A549 cell lines were plated at 2×10^3 cells per well and allowed to culture for 24 hours. The cell media was then aspirated, the cells washed with PBS, then exposed to the MTS reagent for 3 hours. After 3 hours of MTS bio-reduction by proliferating cells, the formazan product's absorbance was measured using a 450 nm filter on an Infinite 2000 PRO microplate reader (Tecan, Mannadorf, Switzerland). Cell viability after drug exposure was evaluated using the CellTiter 96 Aqueous Non-Radioactive Cell Proliferation Assay. A549 cell lines were plated at 2×10^3 cells per well and allowed to culture for 24 hours. The cells were then treated with cisplatin, carboplatin, or a combination of cisplatin and vinorelbine for three days. The cell media was then aspirated, the cells washed with PBS, then exposed to the MTS reagent for 3 hours. After 3 hours of MTS bio-reduction by proliferating cells, the formazan product's absorbance was measured using a 450 nm filter on an Infinite 2000 PRO microplate reader.

wild type A549 cells = test: MTS cell proliferation assay after drug exposure, wild type cells; format: cell-based, human
Protocol: as §1

[2] = test system: NRF2 knockout A549 (2-11) tumors; test: Xenograft mouse model, NRF2 knockout A549 (2-11) tumors; format: in vivo, athymic nude mice; details: for tumor growth: 16 days
Protocol: The animal trials presented herein were carried out at Washington Biotech Inc., Simpsonville Maryland, under animal use and care protocol (SOP 505, SOP 520, SOP 522, SOP 1610, SOP1650) approved by the animal care and use committee of Washington Biotechnology Inc. (AAALAC accredited Animal Welfare Assurance number A4192-01). The human xenograft model was established using methodology reported previously. […] et al., Biomed Res. Int. 2015, 1-17 (2015). Female athymic nude mice (Envigo, 5-6 weeks old) were used in this study. Approximately 5×10^6 cells (wild type A549 or homozygous knockout (clonal expansion 2-11)) suspended in PBS with 20% Matrigel were injected subcutaneously into right flank of each mouse. Tumor volume was measured three times a week with a digital caliper once palpable, and calculated using the formula, tumor size=ab^2/2, where 'a' is the larger and 'b' is the smaller of the two dimensions. When tumors grew up to a mean volume of around 100 mm^3, A549 tumor bearing mice or A549-2-11 tumor bearing mice were randomly divided into 7 groups (N=5 for each group) respectively and subject to dose/regimen-finding study. […] Tumor volume and body weight was closely monitored over time. After 16 days, the animals were sacrificed, with tumor removed, weighed and processed for molecular analysis. Mice were euthanized. The data were expressed as mean±SD. Student's t-test and one-way or two-way ANOVA was used to assess the significance of difference. […] A549 xenografts were resected on day 16, snap frozen in liquid nitrogen and stored in -80° C. until usage. All immunofluorescence staining was performed as previously described. Wang et al., Investig. Opthalmology Vis. Sci. 58, 3896 (2017). Briefly, tumors were embedded in Optimum Cutting Temperature (Tissue Tek, Torrance, CA, USA) and 16-μm-thick sections were obtained with a Leica CM3050 cryostat (Leica Microsystems, Buffalo Grove, IL, USA), and mounted on slides. Slides were fixed and incubated with blocking buffer for 1 hour at room temperature. […]

For “5′-UCGAUGUGACCGGGAAUAUCAGG (listed as RNA, chemistry not fully specified) [gRNA1]”, the “indels (TIDE), NRF2 disruption” value (NRF2 gene) was “significant amount of indels”.
“5′-UGAUUUAGACGGUAUGCAACAGG (listed as RNA, chemistry not fully specified) [gRNA2]” was tested, and the “indels (TIDE), NRF2 disruption” value (NRF2 gene) was “significant amount of indels”.
For `N.N.[Cl][Pt][Cl]` [cisplatin], the “concentration at and above which proliferation is lost” value [1] was no less than 1 µM, the “chemosensitivity (MTS proliferation)” value [1] was “increase in chemosensitivity in a dose-dependent fashion” and the “concentration up to which a slight increase in cell proliferation is seen” value (wild type A549 cells; wild type A549, 72 hours) was “up to 3 μM”. For the same molecule, the “final concentration at which proliferation is adversely affected” value (wild type A549 cells; wild type A549, 72 hours) was 5 µM and 10 µM, the “response of cell proliferation to drug (MTS)” value (wild type A549 cells; wild type A549, increasing dosages, 72 hours) was “resistant to high dosages of Cisplatin” and the tumor growth ([2]; cisplatin 2 mg/kg tail vein on day 0, 3, 6, 9) was “proliferation of the implanted cells is arrested; also recorded: smallest tumors”. For the same molecule, the “Ki67 staining of xenograft tumors” value ([2]; cisplatin 2 mg/kg, tumors resected day 16, compared to saline) was “even lower levels of Ki67”.
`N.N.O=C([O-])C1(C(=O)[O-])CCC1.[Pt+2]` [carboplatin] was tested, and the “chemosensitivity (MTS proliferation)” value ([1]; listed as Carboplatin) was “reflected what was observed in the experiments using cisplatin” and the tumor growth ([2]; 25 mg/kg carboplatin tail vein on day 0, 3, 6, 9) was “same reduced proliferation and growth trend described above is reproduced”.
